Reference: US11571433B2, “Methods for treating memory impairment and cognitive dysfunction” (CARMEL HAIFA […] CORPORATION LTD., priority 2018, dated 2023)

What was measured:
[1] = system: Hippocampal slices from AS mice; assay: High frequency stimulation LTP (fEPSP slope) in area CA1 of hippocampal slices; type: cell-based, mouse; details: for LTP deficit after high frequency stimulation: AS mice hippocampal slices, MBG 0.5 μM 20 min before, during and 20 min after tetanization, vs vehicle
Experimental: Electrophysiology: Hippocampal slices were prepared from wild-type and AS model mice as previously described (Kaphzan et al., 2012; Kaphzan et al., 2013). LTP was induced in area CA1 with high frequency stimulation (HFS) by delivering two 100 Hz trains of HFS with an intertrain interval of 20 sec. The initial slope of the field excitatory postsynaptic potential (fEPSP) for each experiment was expressed as the ratio to the average baseline response prior to delivery of HFS.
(§1) Drug handling: Marinobufagenin was kept in stock solution (1 mg/10 ml) in 0.5% DMSO and was freshly diluted to the required concentration 0.042 mg/mL by saline prior to the experiment. At this stock concentration a volume of 100 μL for 16 days in a rate of 0.25 μL/hour correlated to approximately 10 μg/kg/day for a mouse of 25 grams. The exact concentration was calculated for each mouse according to its body weight. As a vehicle 1:200 stock solution of DMSO in water (the maximal concentration of DMSO matched to the maximal dose of MBG, i.e. 10 μg/kg/day) was used. For delivery via osmotic pumps only mice that weigh more than 20 g were used. For LTP studies, marinobufagenin was kept at 100 mM stock solution in DMSO and was freshly dissolved in 1:100,000 carboxygenated artificial cerebrospinal fluid to the final concentration of 1 μM. For chronic injections Alzet osmotic pumps filled with marinobufagenin were used as described (Elkareh et al., 2007; Fedorova et al., 2009; Kennedy et al., 2006; Liu et al., 2012; Yoshika et al., 2007).
Hippocampal slices from WT and AS mice were stimulated with a single train of high frequency stimulation (1 sec 100 Hz-indicated by an arrow). Some of the AS slices were treated with either vehicle or MBG 0.5 μM 20 min before, during and 20 min after tetanization. WT vehicle: mice n=3, slices n=6; AS vehicle: mice n=2, slices n=4; AS MBG: mice n=2, slices n=4. P<0.05 for interaction of time and treatment in 2-way RM-ANOVA. Sample traces 1-baseline, 2-20 min after HFS.

AS model mice [2] = assay: Contextual fear conditioning; type: in vivo, mouse; details: IP infusion 10 μg/kg/day by osmotic pump, started 2 weeks before conditioning, tested 24 hours after training
Experimental: as §1
Contextual fear conditioning: Mice were placed into a standard conditioning chamber and given a two-sec scrambled foot shock (0.75 mA) twice, two minutes and four minutes after session onset. […] The occurrence of freezing was measured every 10 seconds throughout training. […] The occurrence of freezing was measured every 10 sec throughout testing. […]

a1-NaKA = molecular target: T1, a1-NaKA (Mus musculus, UniProt Q8VDN2); assay: Inhibition of a1-NaKA; details: 0.5 μM MBG
T1 construct: Hippocampal slices from WT and AS mice were stimulated; from tissue; host or cells: mouse hippocampal slices (WT and Angelman syndrome model mice)

AS model mice [3] = assay: Morris water maze; type: in vivo, mouse; details: chronic MBG infusion
Experimental: as §1
Morris water maze: MWM experiments were performed as previously described (Kaphzan et al., 2013). […] The animals' trajectories, escape latencies, number of previous platform position crossing, time spent in each quadrant, and swim speed were recorded with a computerized video-tracking system (Noldus EthoVision).

CA1 pyramidal cells = assay: Whole cell recordings of resting membrane potential of CA1 pyramidal cells in hippocampal slices; type: cell-based; details: MBG 10 μM, 10 min incubation; AS mouse vs WT littermate; P=0.07
Experimental: The effect of a1-NaKA inhibition with MBG 10 μM on the resting membrane potential was tested (FIG. 2). Hippocampal slices were incubated for 10 min with MBG 10 μM. Whole cell recordings of CA1 pyramidal cells show a larger effect on the resting membrane potential of AS mouse compared to a WT littermate. WT 1 mouse, cells n=4. AS: 1 mouse cells n=5. P=0.07 for the interaction in 2 way RM-ANOVA.

C[C@]12CC[C@H](O)C[C@@]1(O)CC[C@@H]1[C@@H]2CC[C@]2(C)[C@@H](c3ccc(=O)oc3)C[C@H]3O[C@]132 [MBG, 3-beta,5-dihydroxy-14,15-beta-epoxy-5-beta-bufa-20,22-dienolide]
HFS-LTP impairment ([1]; AS hippocampal slices incubated with MBG 1 μM): rescue of the impaired LTP phenotype
LTP deficit after high frequency stimulation [1]: induced a recovery of LTP deficit
LTP deficit after high frequency stimulation ([1]; listed as marinobufagenin): correction of long-term potentiation defects
baseline synaptic transmission ([1]; hippocampal slices incubated with MBG 1 μM): no effect on baseline synaptic transmission
baseline synaptic transmission ([1]; hippocampal slices, MBG 0.5 μM): did not affect baseline synaptic transmission
contextual fear memory (AS model mice [2]): corrects impaired contextual fear memory
Inhibition of a1-NaKA (a1-NaKA): partial and mild
visuospatial memory in the Morris water maze (AS model mice [3]): impairment is corrected
effect on resting membrane potential (CA1 pyramidal cells): larger effect in AS mice than in wild-type littermates
